Columns and labels:
mouse 11β-HSD1 = mouse 11β-HSD1 (Mus musculus, UniProt P50172); test: Cellular 11β-HSD1 inhibition, mouse enzyme; format: cell-based; details: mean of three measurements
[1] = Metabolism studies in human liver microsomes; format: in vitro ADME; details: for half-life / metabolites identified: human liver microsomes, 37 °C, NADPH; for half-life: 40 min, mean of two measurements
[2] = target: T1, human cytochrome P450 1A2 (Homo sapiens, UniProt P05177); test: Inhibition of human cytochrome P450 1A2; format: in vitro ADME
T1 sequence (P05177 1-516): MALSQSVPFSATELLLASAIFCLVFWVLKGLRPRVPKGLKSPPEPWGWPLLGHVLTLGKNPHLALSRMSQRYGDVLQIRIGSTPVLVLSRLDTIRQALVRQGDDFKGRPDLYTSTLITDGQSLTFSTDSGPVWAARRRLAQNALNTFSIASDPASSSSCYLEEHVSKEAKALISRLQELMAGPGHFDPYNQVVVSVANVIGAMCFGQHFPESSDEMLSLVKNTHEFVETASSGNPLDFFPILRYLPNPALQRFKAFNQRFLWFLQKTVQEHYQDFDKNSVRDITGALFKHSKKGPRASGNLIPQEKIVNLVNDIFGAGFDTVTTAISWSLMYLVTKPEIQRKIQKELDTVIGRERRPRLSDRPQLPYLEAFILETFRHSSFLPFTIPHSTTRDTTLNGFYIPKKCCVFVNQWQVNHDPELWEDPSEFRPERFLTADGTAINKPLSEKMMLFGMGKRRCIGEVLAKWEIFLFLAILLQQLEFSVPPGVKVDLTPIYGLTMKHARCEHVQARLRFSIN

[3] = target: human cytochrome P450 2C9 (Homo sapiens, UniProt P11712); test: Inhibition of human cytochrome P450 2C9; format: in vitro ADME
Chain of human cytochrome P450 2C9 (P11712 whole entry): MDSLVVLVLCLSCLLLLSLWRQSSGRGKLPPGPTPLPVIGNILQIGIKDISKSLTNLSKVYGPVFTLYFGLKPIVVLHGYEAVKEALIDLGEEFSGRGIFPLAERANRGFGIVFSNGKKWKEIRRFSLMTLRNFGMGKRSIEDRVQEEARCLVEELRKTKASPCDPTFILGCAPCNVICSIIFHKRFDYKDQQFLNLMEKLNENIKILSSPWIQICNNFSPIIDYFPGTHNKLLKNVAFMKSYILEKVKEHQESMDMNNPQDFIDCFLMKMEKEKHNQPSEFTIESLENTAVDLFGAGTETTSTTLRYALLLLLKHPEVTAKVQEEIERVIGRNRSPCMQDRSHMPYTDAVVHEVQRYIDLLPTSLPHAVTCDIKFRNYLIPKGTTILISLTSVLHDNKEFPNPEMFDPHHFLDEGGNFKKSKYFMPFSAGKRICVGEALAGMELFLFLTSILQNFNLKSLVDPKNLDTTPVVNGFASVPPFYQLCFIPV

[4] = target: human cytochrome P450 2C19 (Homo sapiens, UniProt P33261); test: Inhibition of human cytochrome P450 2C19; format: in vitro ADME
Chain of human cytochrome P450 2C19 (P33261 whole entry): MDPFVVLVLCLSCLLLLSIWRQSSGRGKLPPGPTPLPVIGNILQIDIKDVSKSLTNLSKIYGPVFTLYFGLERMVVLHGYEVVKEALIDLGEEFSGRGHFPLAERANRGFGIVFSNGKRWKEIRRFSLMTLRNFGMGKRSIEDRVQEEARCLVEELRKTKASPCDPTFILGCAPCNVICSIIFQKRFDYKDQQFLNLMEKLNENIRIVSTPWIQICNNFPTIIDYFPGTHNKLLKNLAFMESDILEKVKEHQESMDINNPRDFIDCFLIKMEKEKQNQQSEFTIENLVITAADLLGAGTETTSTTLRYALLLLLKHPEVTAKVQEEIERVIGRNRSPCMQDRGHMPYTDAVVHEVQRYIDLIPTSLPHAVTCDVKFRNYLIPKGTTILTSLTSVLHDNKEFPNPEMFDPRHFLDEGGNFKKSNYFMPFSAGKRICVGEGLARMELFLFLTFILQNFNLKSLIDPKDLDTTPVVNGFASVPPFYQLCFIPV

[5] = target: human cytochrome P450 2D6 (Homo sapiens, UniProt P10635); test: Inhibition of human cytochrome P450 2D6; format: in vitro ADME
Chain of human cytochrome P450 2D6 (P10635 whole entry): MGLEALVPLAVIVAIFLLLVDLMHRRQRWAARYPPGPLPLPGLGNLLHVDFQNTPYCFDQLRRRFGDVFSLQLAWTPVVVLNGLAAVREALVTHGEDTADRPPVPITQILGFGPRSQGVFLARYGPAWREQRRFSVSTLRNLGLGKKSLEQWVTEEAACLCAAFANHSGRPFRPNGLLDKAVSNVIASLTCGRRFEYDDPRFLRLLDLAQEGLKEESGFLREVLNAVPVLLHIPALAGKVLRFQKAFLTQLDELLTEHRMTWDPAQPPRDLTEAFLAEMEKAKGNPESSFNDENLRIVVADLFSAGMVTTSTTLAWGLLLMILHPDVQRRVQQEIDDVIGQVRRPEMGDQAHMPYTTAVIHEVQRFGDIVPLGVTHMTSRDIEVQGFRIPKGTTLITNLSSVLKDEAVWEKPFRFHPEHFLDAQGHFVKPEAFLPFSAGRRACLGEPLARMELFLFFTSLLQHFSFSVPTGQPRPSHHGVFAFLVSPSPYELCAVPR

[6] = target: human cytochrome P450 3A4-BFC (Homo sapiens, UniProt P08684); test: Inhibition of human cytochrome P450 3A4-BFC; format: in vitro ADME
Chain of human cytochrome P450 3A4-BFC (P08684 whole entry): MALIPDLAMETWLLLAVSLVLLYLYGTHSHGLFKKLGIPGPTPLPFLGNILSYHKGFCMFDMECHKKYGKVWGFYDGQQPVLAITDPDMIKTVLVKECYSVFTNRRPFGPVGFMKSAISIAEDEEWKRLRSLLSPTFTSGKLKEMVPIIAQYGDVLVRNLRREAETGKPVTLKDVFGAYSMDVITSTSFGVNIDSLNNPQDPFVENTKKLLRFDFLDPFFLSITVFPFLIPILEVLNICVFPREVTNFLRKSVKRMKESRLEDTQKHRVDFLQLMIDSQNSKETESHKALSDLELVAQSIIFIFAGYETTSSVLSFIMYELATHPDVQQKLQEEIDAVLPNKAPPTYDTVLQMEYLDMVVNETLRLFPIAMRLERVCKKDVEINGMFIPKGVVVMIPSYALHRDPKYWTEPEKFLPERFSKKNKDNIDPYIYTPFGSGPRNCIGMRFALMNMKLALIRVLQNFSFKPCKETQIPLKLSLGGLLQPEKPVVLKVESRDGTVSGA

[7] = target: human cytochrome P450 3A4-BQ (Homo sapiens, UniProt P08684); test: Inhibition of human cytochrome P450 3A4-BQ
Chain of human cytochrome P450 3A4-BQ (P08684 whole entry): as above

[8] = Water solubility in Na2HPO4 buffer solution; format: physicochemical; details: aqueous buffer
[9] = human, liver microsomes, Half-life

Chain of mouse 11β-HSD1 (P50172 whole entry): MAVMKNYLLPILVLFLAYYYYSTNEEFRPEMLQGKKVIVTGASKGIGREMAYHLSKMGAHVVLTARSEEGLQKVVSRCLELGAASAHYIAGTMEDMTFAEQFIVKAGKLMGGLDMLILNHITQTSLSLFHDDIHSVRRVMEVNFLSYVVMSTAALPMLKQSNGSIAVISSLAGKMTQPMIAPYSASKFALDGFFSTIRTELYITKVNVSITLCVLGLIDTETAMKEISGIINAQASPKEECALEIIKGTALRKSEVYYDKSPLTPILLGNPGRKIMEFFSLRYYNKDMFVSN

Row | Structure (SMILES) | IC50 (mouse 11β-HSD1) [µM] | melting point [°C] | half-life [1] [h] | microsomal CLint ([1]; human, liver microsomes) [µL/min/mg] | half-life [1, 9] [h] | IC50 [2] [µM] | IC50 [3] [µM] | IC50 [4] [µM] | IC50 [5] [µM] | IC50 [6] [µM] | IC50 [7] [µM] | metabolites identified [1] | solubility [8] [µg/mL]
1 | O=C(COc1cccnc1)C12CC3CC(CC(C3)C1)C2 [Compound 12, 1-(Adamantan-1-yl)-2-(pyridin-3-yloxy)ethan-1-one] | 0.16 | 73 to 75 | – | – | – | – | – | – | – | – | – | – | –
2 | O=C(C[S+]([O-])c1ccccn1)C12CC3CC(CC(C3)C1)C2 (stereo not drawn) [Compound 16, 1-(Adamantan-1-yl)-2-(pyridine-2-sulfinyl)ethan-1-one] | 0.043 | 66 to 68 | 0.333 | 31 | 0.333 to 0.5 | – | – | – | – | – | – | – | –
3 | Cc1cccc([S+]([O-])CC(=O)C23CC4CC(CC(C4)C2)C3)n1 (stereo not drawn) [Compound 17, 1-(Adamantan-1-yl)-2-(6-methylpyridine-2-sulfinyl)ethan-1-one] | 0.068 | 75 to 76 | – | – | – | – | – | – | – | – | – | – | –
4 | O=C(C[S+]([O-])c1ccncc1)C12CC3CC(CC(C3)C1)C2 (stereo not drawn) [Compound 18, 1-(Adamantan-1-yl)-2-(pyridine-4-sulfinyl)ethan-1-one] | 0.061 | 136 to 138 | – | – | – | > 100 | > 100 | > 100 | > 100 | 12 | > 100 | – | –
5 | O=C(COCc1ccccn1)C12CC3CC(CC(C3)C1)C2 [Compound 28, 1-(Adamantan-1-yl)-2-(pyridin-2-ylmethoxy)ethan-1-one] | 0.044 | – | – | 8.9 | 1.13 | > 100 | > 100 | > 100 | > 100 | 20 | 78 | no metabolites identified | –
6 | O=C(COCc1cccnc1)C12CC3CC(CC(C3)C1)C2 [Compound 31, 1-(Adamantan-1-yl)-2-(pyridin-3-ylmethoxy)ethan-1-one] | – | – | – | 3.7 | 2.13 | 23 | > 100 | 46 | – | 68 | 1.6 | no metabolites identified | –
7 | O=C(C[S+]([O-])Cc1ccccn1)C12CC3CC(CC(C3)C1)C2 (stereo not drawn) [Compound 40, 1-(Adamantan-1-yl)-2-[(pyridin-2-ylmethyl)sulfinyl]ethan-1-one] | 0.248 | 87 to 88 | – | – | – | – | – | – | – | – | – | – | –
8 | O=C(CS(=O)(=O)Cc1ccccn1)C12CC3CC(CC(C3)C1)C2 [Compound 43, 1-(Adamantan-1-yl)-2-[(pyridin-2-ylmethyl)sulfonyl]ethan-1-one] | 0.035 | 116 to 117 | – | – | – | 36 | > 100 | 24 | – | > 100 | 24 | – | –
9 | Cl.O=C(COCc1cccnc1)C12CC3CC(CC(C3)C1)C2 [Compound 62, 1-(Adamantan-1-yl)-2-(pyridin-3-ylmethoxy)ethan-1-one hydrochloride] | – | – | – | – | – | – | – | – | – | – | – | – | > 4000
